Data reported in the supplement of paper PMC11208160.

Assay: recombinant barcode read abundance after kanamycin selection (control-corrected) (log10(CPM+1)); higher = more efficient recombination; sequences stand for … in AGTGCAGAGAAAATCGGCCAGTTTTCTCTGCCTGCAGTCCGCATGCCGT…AGATTTATGCAGCGGACTGCCTTTCTCCCAAAGTGATAAACCGGACAGTATCATGGACCGGTTTTCCCGGTAATCCGTATTTGCAAGGTTGGTTTCACT; site = the 11-nt target
How it was run: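 A vector carrying a T7-inducible recombinase and the last 73 bp of the bridge RNA received, by Gibson cloning, oligos encoding a promoter, target, barcode and the first 104 bridge RNA bases under J23119. The pooled constructs entered E. coli together with a donor plasmid by electroporation. Selection used chloramphenicol/ampicillin/kanamycin with 0.1 mM IPTG, with chloramphenicol/ampicillin LB agar as the control, each in two replicates. Recombination efficiency is the averaged, control-corrected counts-per-million of barcodes at recombinant junctions, reported as log10(CPM+1).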
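Further: IS621 recombinase and bridge RNA in Escherichia coli cells.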

Sequence	recombinant barcode read abundance (log10)
TATTCTACTTGGGTTCTAACCTGTTGCGT (site TATTCTACTGC)	0.0341
TATTCTACTTGGGTTCTAACCTGTTGCGT (site TATTCTACTTC)	0.0549
TATTGGACTTGGGTTCTAACCTGTTGCAC (site TATTGGACTAT)	0.0463
TATTGGACTTGGGTTCTAACCTGTTGCAC (site TATTGGACTCT)	0.122
TATTGGACTTGGGTTCTAACCTGTTGCAC (site TATTGGACTGT)	0.0567
TATTGGACTTGGGTTCTAACCTGTTGCAC (site TATTGGACTTT)	0.0673
TATTGGACTTGGGTTCTAACCTGTTGCAT (site TATTGGACTAT)	0.421
TATTGGACTTGGGTTCTAACCTGTTGCAT (site TATTGGACTCT)	0.153
TATTGGACTTGGGTTCTAACCTGTTGCAT (site TATTGGACTGT)	0.155
TATTGGACTTGGGTTCTAACCTGTTGCAT (site TATTGGACTTT)	0.101
TATTGGACTTGGGTTCTAACCTGTTGCTT (site AATTGGACTAA)	0.0764
TATTGGACTTGGGTTCTAACCTGTTGCTT (site CATTGGACTAA)	0.0882
TATTGGACTTGGGTTCTAACCTGTTGCTT (site GATTGGACTAA)	0.0435
TATTGGACTTGGGTTCTAACCTGTTGCTT (site TATTGGACTAA)	0.141
TATTTGTCTTGGGTTCTAACCTGTTGCCA (site CACTTGTCTTG)	0.023
TATTTGTCTTGGGTTCTAACCTGTTGCCA (site TATTTGTCTTG)	0.156
TCAAGCCCTTGGGTTCTAACCTGTTGCAG (site CAGTCTACTAC)	0.011
TCAAGCCCTTGGGTTCTAACCTGTTGCAG (site TCAAGCCCTCT)	0.927
TCAAGGCCTTGGGTTCTAACCTGTTGCCT (site ACAAGGCCTAG)	0.147
TCAAGGCCTTGGGTTCTAACCTGTTGCCT (site CCAAGGCCTAG)	0.084
TCAAGGCCTTGGGTTCTAACCTGTTGCCT (site GCAAGGCCTAG)	0.106
TCAAGGCCTTGGGTTCTAACCTGTTGCCT (site TCAAGGCCTAG)	0.32

Sequence	recombinant barcode read abundance (log10)
TCAATCCCTTGGGTTCTAACCTGTTGCCT (site TCAATCCCTAG)	0.326
TCAATCCCTTGGGTTCTAACCTGTTGCCT (site TCCATCCCTAG)	0.048
TCAATCCCTTGGGTTCTAACCTGTTGCCT (site TCGATCCCTAG)	0.173
TCAATCCCTTGGGTTCTAACCTGTTGCCT (site TCTATCCCTAG)	0.0124
TCACACACTTGGGTTCTAACCTGTTGCCT (site CTCAGACCTCA)	0.0319
TCACACACTTGGGTTCTAACCTGTTGCCT (site TCACACACTAG)	1.06
TCACCGCCTTGGGTTCTAACCTGTTGCCT (site ACACCGCCTAG)	0.75
TCACCGCCTTGGGTTCTAACCTGTTGCCT (site CCACCGCCTAG)	0.141
TCACCGCCTTGGGTTCTAACCTGTTGCCT (site GCACCGCCTAG)	0.0186
TCACCGCCTTGGGTTCTAACCTGTTGCCT (site TCACCGCCTAG)	0.172
TCACCTGCTTGGGTTCTAACCTGTTGCCT (site TCACATGCTAG)	0.0199
TCACCTGCTTGGGTTCTAACCTGTTGCCT (site TCACCTGCTAG)	0.961
TCACCTGCTTGGGTTCTAACCTGTTGCCT (site TCACGTGCTAG)	0.192
TCACCTGCTTGGGTTCTAACCTGTTGCCT (site TCACTTGCTAG)	0.0607
TCACGTCCTTGGGTTCTAACCTGTTGCGG (site TCACGTCCTCC)	1.3
TCACGTCCTTGGGTTCTAACCTGTTGCGG (site TTACGTCCTCC)	0.0483
TCACGTGCTTGGGTTCTAACCTGTTGCCT (site TCACATGCTAG)	0.0819
TCACGTGCTTGGGTTCTAACCTGTTGCCT (site TCACCTGCTAG)	0.105
TCACGTGCTTGGGTTCTAACCTGTTGCCT (site TCACGTGCTAG)	0.563
TCACGTGCTTGGGTTCTAACCTGTTGCCT (site TCACTTGCTAG)	0.121
TCACTCTCTTGGGTTCTAACCTGTTGCCT (site TAACTCTCTAG)	0.111
TCACTCTCTTGGGTTCTAACCTGTTGCCT (site TCACTCTCTAG)	1.22

Sequence	recombinant barcode read abundance (log10)
TCACTCTCTTGGGTTCTAACCTGTTGCCT (site TGACTCTCTAG)	0.0273
TCACTCTCTTGGGTTCTAACCTGTTGCCT (site TTACTCTCTAG)	0.062
TCACTTCCTTGGGTTCTAACCTGTTGCCT (site TCACCTTCTAG)	0.121
TCACTTCCTTGGGTTCTAACCTGTTGCCT (site TCACTTCCTAG)	0.0238
TCACTTGCTTGGGTTCTAACCTGTTGCCT (site TCACATGCTAG)	0.0105
TCACTTGCTTGGGTTCTAACCTGTTGCCT (site TCACCTGCTAG)	0.0436
TCACTTGCTTGGGTTCTAACCTGTTGCCT (site TCACGTGCTAG)	0.177
TCACTTGCTTGGGTTCTAACCTGTTGCCT (site TCACTTGCTAG)	0.215
TCAGAAGCTTGGGTTCTAACCTGTTGCCG (site ATGAGGCCTTA)	0.022
TCAGAAGCTTGGGTTCTAACCTGTTGCCG (site TCAGAAGCTCG)	0.689
TCAGCCTCTTGGGTTCTAACCTGTTGCCT (site CTGTGTCCTCC)	0.11
TCAGCCTCTTGGGTTCTAACCTGTTGCCT (site TCAGCCTCTAG)	1.72
TCAGCGACTTGGGTTCTAACCTGTTGCCT (site TCAGCGACTAG)	0.481
TCAGCGACTTGGGTTCTAACCTGTTGCCT (site TCCGCGACTAG)	0.139
TCAGCGACTTGGGTTCTAACCTGTTGCCT (site TCGGCGACTAG)	0.27
TCAGCGACTTGGGTTCTAACCTGTTGCCT (site TCTGCGACTAG)	0.39
TCAGGAGCTTGGGTTCTAACCTGTTGCTA (site CATATGACTAG)	0.288
TCAGGAGCTTGGGTTCTAACCTGTTGCTA (site TCAGGAGCTTA)	0.325
TCATAGCCTTGGGTTCTAACCTGTTGCTG (site TCAAAGCCTCA)	0.131
TCATAGCCTTGGGTTCTAACCTGTTGCTG (site TCACAGCCTCA)	0.0283
TCATAGCCTTGGGTTCTAACCTGTTGCTG (site TCAGAGCCTCA)	0.087
TCATAGCCTTGGGTTCTAACCTGTTGCTG (site TCATAGCCTCA)	0.62
